Reference: article PMC5062169, “Structural basis for ligand recognition by a Cache chemosensory domain that mediates carboxylate sensing in Pseudomonas syringae” (Scientific Reports, 2016)

target: T1, PscD (PscD-SD, Cache sensor domain of chemoreceptor PscD) (Pseudomonas syringae, UniProt A0ABY1U976); set-up: fluorescence thermal shift (SYPRO Orange) screen of Biolog PM1/PM2 compounds, delta Tm; conditions: Biolog plate compound, exact concentration unknown; binder
T1 construct: gene CFBP3846_03581; sensor domain, Gln31-Trp188, N-terminal His6 tag
T1 sequence (A0ABY1U976 31-188): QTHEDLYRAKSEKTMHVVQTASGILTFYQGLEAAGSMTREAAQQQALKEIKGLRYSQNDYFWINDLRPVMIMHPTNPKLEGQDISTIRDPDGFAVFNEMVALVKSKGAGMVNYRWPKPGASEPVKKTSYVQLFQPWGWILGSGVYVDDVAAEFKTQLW
Source text: We used high-throughput fluorescence thermal shift (FTS) assays (as described previously[16]) to screen for potential ligands of PscD-SD. FTS assays are based on the principle that ligands stabilise proteins upon binding, causing an increase in the melting temperature of the protein[22][23]. Binding can therefore be rapidly screened by measuring the difference in the temperature midpoint of unfolding (ΔTm) of a protein in the presence and absence of potential ligands. In our FTS assays, the Tm was measured by monitoring an increase in fluorescence of a dye with affinity for hydrophobic parts of the protein (i.e. SYPRO Orange), which are exposed as the protein unfolds. We screened the recombinant PscD-SD protein in FTS assays against the compounds in Biolog Phenotype Microarray (PM) plates 1 and 2 (Supplementary Tables 1 and 2). Each plate contains 95 different compounds (e.g., organic acids, sugars) and a water (no ligand) control. For use in FTS assays, the compounds were resuspended directly in water, thus generating a library of biologically relevant potential ligands. […] Fluorescent thermal shift (FTS) assays were conducted as reported previously. PscD-SD was screened for potential ligands against Biolog Phenotype Microarray (PM) plates 1 and 2 (Biolog, Hayward, CA, USA). For initial qualitative, high-throughput screening, ligands were prepared by dissolving Biolog PM compounds in 50 μL of water (each) to obtain a final concentration of approximately 10–20 mM (the exact concentrations vary from well-to-well). Screens were set up in Lightcycler 480 multiwell plates (Roche Diagnostics, Auckland, NZ) with 20 μM protein, a 5x concentration of SYPRO orange (Life Technologies, Carlsbad, CA, USA) and 5 μL of the test compound (i.e. resuspended Biolog ligands) added to each well. The plate was covered with Lightcycler 480 sealing film (Roche Diagnostics) and fluorescence signal was monitored as the temperature was increased from 20 °C to 80 °C at a rate of 1.2 °C.min^−1 in a Lightcycler 480 (Roche Diagnostics). Initial hits were further tested using known concentrations (0, 1, 2, 5 and 10 mM) of each potential ligand to confirm binding. The ligands were prepared as 10x stocks, 2 μL were added to each well, and the experiments were conducted as described above. The first derivative values (−dF/dt) from the raw fluorescence data were used to determine the melting temperature (Tm). Three biological replicates (from independently cultured and purified batches of protein) were performed for each plate screened.

Compound | Δ Tm [°C]
C[N+](C)(C)CC(O)CC(=O)[O-] (racemic) [D,L-Carnitine] | -0.02 ± 0.02
NCC(O)c1ccc(O)cc1 (racemic) [D,L-Octopamine] | 0.03 ± 0.03
C[C@@H](O)[C@@H](C)O [2,3-Butanediol] | 0.05 ± 0.03
O=CC[C@H](O)[C@H](O)CO [2-Deoxy-D-Ribose] | 0.66 ± 0.05
O=C(O)c1ccccc1O [2-Hydroxy Benzoic Acid] | 0.00 ± 0.04
O=C(O)c1ccc(O)cc1 [4-Hydroxy Benzoic Acid] | 0.03 ± 0.03
O=C(CO)[C@@H](O)[C@H](O)[C@@H](O)C(=O)O [5-keto-D-Gluconic Acid] | 0.10 ± 0.02
CC(N)=O [Acetamide] | 0.00 ± 0.00
N#C[C@H](O[C@@H]1O[C@H](CO[C@@H]2O[C@H](CO)[C@@H](O)[C@H](O)[C@H]2O)[C@@H](O)[C@H](O)[C@H]1O)c1ccccc1 [Amygdalin] | 0.03 ± 0.03
OC[C@H]1O[C@@H](Oc2ccc(O)cc2)[C@H](O)[C@@H](O)[C@@H]1O [Arbutin] | 0.03 ± 0.05
C/C(=C/C(=O)O)C(=O)O [Citraconic Acid] | 0.08 ± 0.00
CC(O)(CC(=O)O)C(=O)O (stereo not drawn) [Citramalic Acid] | 0.03 ± 0.03
OC1OC[C@@H](O)[C@@H](O)[C@@H]1O (stereo partly drawn) [D-Arabinose] | 0.05 ± 0.05
OC[C@@H](O)C(O)[C@H](O)CO [D-Arabitol] | 0.00 ± 0.05
C[C@@H](O)[C@H](O)[C@H](O)[C@@H](O)C=O [D-Fucose] | 0.10 ± 0.11
N[C@H]1C(O)O[C@H](CO)[C@@H](O)[C@@H]1O (stereo partly drawn) [D-Glucosamine] | -0.25 ± 0.03
COC(=O)[C@@H](C)O [D-Lactic Acid Methyl Ester] | 0.00 ± 0.00
OC[C@H]1O[C@@](CO)(O[C@H]2O[C@H](CO)[C@@H](O)[C@H](O)[C@H]2O)[C@@H](O[C@H]2O[C@H](CO)[C@@H](O)[C@H](O)[C@H]2O)[C@@H]1O [D-Melezitose] | 0.03 ± 0.03
OC[C@H]1O[C@H](OC[C@H]2O[C@H](O[C@]3(CO)O[C@H](CO)[C@@H](O)[C@@H]3O)[C@H](O)[C@@H](O)[C@@H]2O)[C@H](O)[C@@H](O)[C@H]1O [D-Raffinose] | 0.00 ± 0.00
O=C(CO)[C@@H](O)[C@@H](O)[C@H](O)CO [D-Tagatose] | 0.00 ± 0.04
O=C(CO)CO [Dihydroxyacetone] | 0.35 ± 0.14
NCC(=O)O [Glycine] | 0.05 ± 0.05
O=C(O)[C@@H]1C[C@@H](O)CN1 [Hydroxy-L-Proline] | 0.03 ± 0.05
C=C(CC(=O)O)C(=O)O [Itaconic Acid] | -0.05 ± 0.33
C[C@H](N)C(N)=O [L-Alaninamide] | 0.08 ± 0.00
OC[C@H](O)C(O)[C@@H](O)CO [L-Arabitol] | 0.03 ± 0.03
N=C(N)NCCC[C@H](N)C(=O)O [L-Arginine] | 0.03 ± 0.03
N[C@@H](Cc1c[nH]cn1)C(=O)O [L-Histidine] | 0.00 ± 0.04

Compound | Δ Tm [°C]
N[C@@H](CCO)C(=O)O [L-Homoserine] | 0.03 ± 0.03
CC[C@H](C)[C@H](N)C(=O)O [L-Isoleucine] | 0.08 ± 0.00
CC(C)C[C@H](N)C(=O)O [L-Leucine] | 0.05 ± 0.03
NCCCC[C@H](N)C(=O)O [L-Lysine] | 0.10 ± 0.11
CSCC[C@H](N)C(=O)O [L-Methionine] | 0.43 ± 0.39
N[C@@H](Cc1ccccc1)C(=O)O [L-Phenylalanine] | 0.08 ± 0.00
O=C1CC[C@@H](C(=O)O)N1 [L-Pyroglutamic Acid] | 0.08 ± 0.00
CC(C)[C@H](N)C(=O)O [L-Valine] | 0.03 ± 0.03
OC[C@@H](O)[C@@H](O[C@@H]1O[C@H](CO)[C@H](O)[C@H](O)[C@H]1O)[C@H](O)[C@@H](O)CO [Lactitol] | 0.08 ± 0.00
O=C(O)CC(=O)O [Malonic Acid] | 0.08 ± 0.00
OC[C@@H](O)[C@@H](O[C@H]1O[C@H](CO)[C@@H](O)[C@H](O)[C@H]1O)[C@H](O)[C@@H](O)CO [Maltitol] | 0.05 ± 0.05
O=C(O)[C@H](O)[C@@H](O)[C@H](O)[C@H](O)CO[C@H]1O[C@H](CO)[C@H](O)[C@H](O)[C@H]1O [Melibionic Acid] | 0.08 ± 0.00
CC(=O)N[C@H]1C(O)O[C@H](CO)[C@H](O)[C@@H]1O (stereo partly drawn) [N-Acetyl-D-Galactosamine] | 0.00 ± 0.00
CC(=O)N[C@@H](CO)[C@@H](O)[C@H](O)[C@H](O)CO [N-Acetyl-D-Glucosaminitol] | 0.08 ± 0.00
CC(=O)N[C@@H](CCC(=O)O)C(=O)O [N-Acetyl-L-Glutamic Acid] | 0.08 ± 0.00
CC(=O)N[C@H]1[C@H]([C@H](O)[C@H](O)CO)OC(O)(C(=O)O)C[C@@H]1O (stereo partly drawn) [N-Acetyl-Neuraminic Acid] | 0.08 ± 0.00
O=C(O)C(=O)O [Oxalic Acid] | 0.03 ± 0.03
NCCCCN [Putrescine] | 0.03 ± 0.05
O=C(O)[C@]1(O)C[C@@H](O)[C@@H](O)[C@H](O)C1 [Quinic Acid] | 0.00 ± 0.04
OCc1ccccc1O[C@@H]1O[C@H](CO)[C@@H](O)[C@H](O)[C@H]1O [Salicin] | 0.08 ± 0.00
O=C(O)CCCCCCCCC(=O)O [Sebacic Acid] | 0.48 ± 0.09
CCC(C)N (stereo not drawn) [Sec-Butylamine] | 0.00 ± 0.04
OC[C@@]12OC[C@@H](O1)[C@@H](O)[C@@H](O)[C@@H]2O [Sedoheptulosan] | 0.08 ± 0.00
C/C=C/C=C/C(=O)O [Sorbic Acid] | 0.65 ± 0.09
OC[C@H]1O[C@H](OC[C@H]2O[C@H](OC[C@H]3O[C@H](O[C@]4(CO)O[C@H](CO)[C@@H](O)[C@@H]4O)[C@H](O)[C@@H](O)[C@@H]3O)[C@H](O)[C@@H](O)[C@H]2O)[C@H](O)[C@@H](O)[C@H]1O [Stachyose] | 0.05 ± 0.05
NC(=O)CCC(=O)O [Succinamic Acid] | 0.18 ± 0.10
O=C(CO)[C@@H](O[C@H]1O[C@H](CO)[C@@H](O)[C@H](O)[C@H]1O)[C@H](O)[C@H](O)CO [Turanose] | 0.03 ± 0.03

same assay, conditions: Biolog plate compound, exact concentration unknown; binder; Δ Tm

Compound | Δ Tm [°C]
O=C(O)[C@@H](O)[C@H](O)C(=O)O [D-Tartaric Acid] | 0.10 ± 0.11
O=C(O)[C@H](O)[C@@H](O)C(=O)O [L-Tartaric Acid] | 0.33 ± 0.29
